Experimental findings from ChEMBL document CHEMBL4325872, “Identification of Selective Dual ROCK1 and ROCK2 Inhibitors Using Structure-Based Drug Design” (J Med Chem, 2018) are described below.

≈ marks a conversion by molar mass, not a printed value.

Data set [1] can be described thus: physchem.
The nature of data set [2]: in vitro. As to conditions: PAMPA. A general note: The PAMPA barrier holds no transporters, so it reflects passive diffusion.

A word on the solubility: it is the concentration that dissolves in the medium under given conditions. Lower therefore signals a poorly soluble substance. The Papp is a coefficient for how fast a substance crosses the barrier. Compound `COc1cccc([C@@H](C)NC(=O)c2ccc(-c3ccncn3)cc2N2CCC[C@@H](CN)C2)c1` had a solubility in data set [1] of 51.2 µM (≈ 22.8 µg/mL). In data set [2], the Papp was determined as 2.5 ×10⁻⁶ cm/s.
The like results for `COc1cccc([C@@H](C)NC(=O)c2ccc(-c3ccncn3)cc2N2CC[C@@H](CN)C2)c1` were, in that order, 63.9 µM (≈ 27.6 µg/mL) and 1.4 ×10⁻⁶ cm/s.
The matching figures for `COc1cccc([C@@H](C)NC(=O)c2ccc(-c3ccncn3)cc2N2CCC[C@H](CN)C2)c1`: 65.5 µM (≈ 29.2 µg/mL) and 2.6 ×10⁻⁶ cm/s.
